Entries after “also recorded” stand apart in the source; their conditions may differ.
Columns and labels:
HeLa cells = assay: Colony formation assay, HeLa cells; format: cell-based, human; conditions: FIG. 8A, 10 cm plates, 100 mM (printed) compound
Method: (§1) HeLa, A549, or SUM-159 cells were plated at a low density of 200-400 cells per well in the absence or presence of putative ERK docking domain inhibitors. Cell colonies were stained with crystal violet and counted after 6-10 days. In FIG. 8A cells were grown on 10 cm plates in the absence (−) or presence of […] of compound 67, 36, 68, 81, or 76. Colony formation dose response in the presence of the indicated concentrations of compound 76 (closed squares) or 81 (open squares) for Hela cells ([…]) (FIG. 8B), A549 cells (50 mM) (FIG. 8C), or SUM-159 cells (50 mM) (FIG. 8D).
(§2) Two methods were used to determine cell proliferation and survival based on colony formation. First, HeLa cells were grown to 70-80% confluence and then treated for 16 hours in the absence (DMSO only) or presence of active compounds. The next day cells were trypsinized, replated (1000-2000 cells per 10 cm culture dish) in regular media and allowed to grow for 8-14 days. Cells then were fixed for 10 minutes in 4% paraformaldehyde and stained with 0.2% crystal violet (in 20% methanol) for 1-2 minutes. Cells were washed several times with distilled water and colonies formed of at least 40 cells were counted. In the second method, growing cells were trypsinized and replated (500-1000 cells per 35 or 60 mm well, respectively) in the presence or absence of various concentrations of the test compounds. Following incubation for 8-14 days, cells were fixed, stained with crystal violet, and counted as described above.
The effects of the active compounds on cell proliferation and survival were tested using a colony formation assay.
(§3) Thus, several test compounds that show maximal inhibition of ERK substrates are also effective inhibitors of proliferation in cultured cancer cell lines.

[1] = tested on: ERK-mediated phosphorylation of Rsk-1 on Thr573; assay: ERK-mediated Rsk-1 phosphorylation, immunoblot of EGF-stimulated HeLa cells; format: cell-based, human
[2] = tested on: HT1080 fibrosarcoma cells; assay: Cell proliferation, HT1080 cells; format: cell-based, human; conditions: HT1080, data not shown
Method: as §2, §3

ERK2 = molecular target: T1, ERK2 (Mus musculus, UniProt P63085); assay: ERK2 fluorescence titration (quenching of intrinsic fluorescence); format: binding; conditions: for quenching of ERK2 fluorescence (in words): wild type ERK2, excitation 295 nm
T1 construct: (His)6; made in house; host or cells: bacteria
T1 sequence (P63085 whole entry): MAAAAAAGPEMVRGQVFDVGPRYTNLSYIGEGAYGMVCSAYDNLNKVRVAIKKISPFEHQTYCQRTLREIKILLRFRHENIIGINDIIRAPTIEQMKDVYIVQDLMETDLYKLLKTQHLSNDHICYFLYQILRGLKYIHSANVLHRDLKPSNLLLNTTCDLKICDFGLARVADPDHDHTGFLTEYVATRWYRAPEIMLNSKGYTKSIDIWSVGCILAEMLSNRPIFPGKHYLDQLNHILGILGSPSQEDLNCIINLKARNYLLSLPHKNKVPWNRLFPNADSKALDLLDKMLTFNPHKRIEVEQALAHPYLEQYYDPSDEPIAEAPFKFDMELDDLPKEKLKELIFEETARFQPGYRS
Excerpt: ERK2 was purified as described previously (46) with some modifications. Briefly, (His)6-tagged ERK2 was expressed in bacteria and the cells were harvested in BugBuster protein extraction reagent (EMD Biosciences, San Diego, Calif.). Clarified lysates were loaded onto a Talon Co^2+-IMAC affinity chromatography resin column (BD Biosciences, San Jose, Calif.) and the bound protein was eluted using increasing concentrations of imidazole. SDS-PAGE electrophoresis and Coomassie blue staining were used to identify the eluted fractions containing the ERK2 protein. The ERK2 protein concentration was determined using Bradford Reagent (Sigma).
Experiments will measure the changes in the intrinsic ERK2 fluorescence due to the presence of aromatic amino acids, with the indole group of tryptophan being the major fluorophore with absorption and emission maxima around 280 and 340 nanometers (nm), respectively. Fluorescence spectra were recorded with a Luminescence Spectrometer LS50 (Perkin Elmer, Boston, Mass.). For all experiments, ERK2 protein was diluted into 20 mM Tris-HCl, pH 7.5. Titrations were performed by increasing the test compound concentration while maintaining the ERK2 protein concentration at […]. […] The excitation wavelength was 295 nm and fluorescence was monitored from 300 to 500 nm. All reported fluorescence intensities are relative values and are not corrected for wavelength variations in detector response. Dissociation constants, KD, were determined using reciprocal plots, 1/v vs 1/[I], where v represents the percent occupied sites calculated assuming fluorescence quenching to be directly proportion to the percentage of occupied binding sites, [1] represents the concentration of the inhibitor compound and the slope of the curve equals the KD (48-49).
ERK2 contains three tryptophans, which have intrinsic fluorescence.

[3] = tested on: SUM-159 estrogen-receptor negative breast cancer cell line; assay: Colony formation assay, SUM-159 cells; format: cell-based, human; conditions: SUM-159, FIG. 8D
Method: as §1
as §2, with “In the second method, growing cells were trypsinized and replated (500-1000 cells per 35 or 60 mm well, respectively) in the presence or absence of various concentrations of the test compounds.” left out, “above. […]” for “above.”

[4] = tested on: dually phosphorylated ERK1/2 (ppERK1/2); assay: ERK1/2 phosphorylation on activating sites (ppERK1/2), immunoblot of EGF-stimulated HeLa cells; format: cell-based, human
Method: (§4) In FIGS. 4A-4B HeLa cells were treated with EGF for 5 minutes with or without 100 mM of test compounds. […] The far left lane is the control (−) with no EGF. […] The control (C) is EGF only treatment. In FIG. 4B cells pretreated with increasing concentrations of compound 76 were stimulated with EGF. ELK-1 phosphorylation on Ser383 (pELK-1) was measured by immunoblotting. […] Protein lysates were separated by SDS-PAGE and immunoblotted simultaneously for phosphorylated ELK-1 (pELK-1, Ser383), dually phosphorylated ERK1/2 (ppERK1/2), and a-tubulin as a protein loading control. […] The control (C) is EGF only treatment.
(§5) The lysates then were diluted with an equal volume of 2× SDS-sample buffer and the proteins were separated on SDS-PAGE for immunoblot analysis. Immunoblot analysis was done as previously described (41-43).

[5] = tested on: ERK-specific phosphorylation of Elk-1 on Ser383; assay: ERK-mediated Elk-1 phosphorylation, immunoblot of EGF-stimulated HeLa cells; format: cell-based, human
Method: as §4, with “FIGS.” for “FIGS. 4A-4B HeLa cells were treated with EGF for 5 minutes with or without 100 mM of test compounds.”
as §5
Compounds that were identified using the 3D structure of phosphorylated ERK2 also were tested.

colony formation = assay: Colony formation assay of compounds 86-98 (cell line not given); format: cell-based; conditions: Table 3
Method: Cell colonies were stained with crystal violet and counted after 6-10 days.
Cells then were fixed for 10 minutes in 4% paraformaldehyde and stained with 0.2% crystal violet (in 20% methanol) for 1-2 minutes.

[6] = increasing doses of compound, EGF stimulation
[7] = 75 mM (printed) test compound 30 minutes, EGF 5 minutes

Structure (SMILES)	effect on colony formation / cell proliferation (in words) (HeLa cells)	effect on ERK-mediated Rsk-1 phosphorylation (in words) [1]	inhibition of cell proliferation (in words) [2]	y-intercept of reciprocal plot (indicating a single binding site) (ERK2; wild type ERK2)	quenching of ERK2 fluorescence (in words) (ERK2)	inhibition of cell proliferation (in words) [3]	effect on ERK1/2 phosphorylation on its activating sites [4, 6]	effect on ERK-mediated Elk-1 phosphorylation (Ser383) [5, 6]	IC50 (colony formation)	effect on ERK1/2 phosphorylation (ppERK1/2) [4, 7]	effect on EGF-mediated ELK-1 phosphorylation (Ser383) [5, 7]
N=C(N)Nc1nc(C2COc3ccccc3O2)cs1 (stereo not drawn) [Compound 36]	subtle inhibition of colony formation; also recorded: little effect on colony formation	little effect on ERK substrate phosphorylation; also recorded: little effect on ERK-mediated Rsk-1 phosphorylation	–	–	–	–	–	–	–	–	–
CCOc1ccc(C=C2SC(=O)N(CCN)C2=O)cc1 [Compound 76]	completely inhibited cell proliferation	highest inhibition of Rsk-1 phosphorylation	inhibition of cell proliferation	1.8	strong quenching of fluorescence	inhibition of cell proliferation	largely unaffected	inhibited ERK-mediated Elk-1 phosphorylation	–	–	–
O=C(CCN1CCN(C/C=C/c2ccccc2)CC1)Nc1ccc(Cl)cc1 [Compound 81]	completely inhibited cell proliferation	–	inhibition of cell proliferation	–	quenching only occurs to a small extent at the higher concentrations	inhibition of cell proliferation	–	–	–	–	–
COc1cc(C=C2NC(=O)NC2=O)ccc1OCc1ccc(Br)cc1 [Compound 95]	–	–	–	–	quenched ERK2 fluorescence; also recorded: more effective in quenching	–	–	–	> 100 µM	little effect on ERK1/2 phosphorylation	showed evidence for inhibiting ERK-mediated ELK-1 phosphorylation; also recorded: inhibited EGF-mediated ELK-1 phosphorylation

From US20090299063A1, “Inhibitors for Extracellular Signal-Regulated Kinase Docking Domains and Uses Therefor” (priority 2005, published 2009)
